The target of the assay is Gal-3 (Homo sapiens, UniProt P17931). Description: Fluorescence anisotropy assay, inhibition of galectin / fluorescein tagged saccharide probe interaction. Format: binding. Here is the method: The affinity of Example 1-59 for galectins were determined by a fluorescence anisotropy assay where the compound was used as an inhibitor of the interaction between galectin and a fluorescein tagged saccharide probe as described Sörme, P., Kahl-Knutsson, B., Huflejt, M., Nilsson, U. J., and Leffler H. (2004) Fluorescence polarization as an analytical tool to evaluate galectin-ligand interactions. Anal. Biochem. 334: 36-47, (Sarme et al., 2004)
Gal-3, sequence (P17931 whole entry, species assumed): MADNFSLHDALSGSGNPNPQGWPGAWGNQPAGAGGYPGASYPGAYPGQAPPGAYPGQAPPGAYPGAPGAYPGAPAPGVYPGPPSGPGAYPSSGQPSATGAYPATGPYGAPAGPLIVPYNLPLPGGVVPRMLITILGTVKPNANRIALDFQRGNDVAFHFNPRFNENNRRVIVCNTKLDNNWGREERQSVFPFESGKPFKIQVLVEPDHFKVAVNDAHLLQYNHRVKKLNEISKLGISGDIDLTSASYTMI
Background: Polarisation of emitted light reports the rotation of a fluorescent probe.
With `Cc1nnc([C@@H]2OC(CO)[C@H](O)C(n3cc(-c4cc(F)c(Cl)c(F)c4)cn3)C2O)n1-c1cc(Cl)ccc1C(F)(F)F` (single isomer, unassigned) [Example 10, 1-{3-{3-[4-(4-Chloro-3,5-difluorophenyl)-1H-1,2-pyrazol-1-yl]-3-deoxy-β-D-galactopyranosyl}-5-methyl-4H-1,2,4-triazol-4-yl}-5-chloro-2-(trifluoromethyl)benzene], the Kd – broadly, the free concentration of one partner at which half of the binding sites on the other are occupied at equilibrium, for simple one-to-one binding – worked out at 370 nM.
`Cc1nnc([C@@H]2OC(CO)[C@H](O)C(n3cc(-c4cc(F)c(Cl)c(F)c4)cn3)C2O)n1-c1cc(Cl)ccc1C(F)(F)F` (single isomer, unassigned) [Example 11, 1-{3-{3-[4-(4-Chloro-3,5-difluorophenyl)-1H-1,2-pyrazol-1-yl]-3-deoxy-β-D-galactopyranosyl}-5-methyl-4H-1,2,4-triazol-4-yl}-5-chloro-2-(trifluoromethyl)benzene] returned a Kd of 7 nM.
The result for `Cc1nc([C@@H]2OC(CO)[C@H](O)C(n3cc(-c4cc(F)c(F)c(F)c4)cn3)C2O)n(-c2cc(Cl)ccc2C(F)(F)F)n1` (stereo in doubt) [Example 3, 5-Chloro-1-{5-{3-deoxy-3-[4-(3,4,5-trifluorophenyl)-1H-1,2-pyrazol-1-yl]-β-D-galactopyranosyl}-3-methyl-1H-1,2,4-triazol-1-yl}-2-(trifluoromethyl)benzene] reads 9 nM.
The result for `Cc1nc([C@@H]2OC(CO)[C@H](O)C(n3cc(-c4cc(F)c(F)c(F)c4)cn3)C2O)n(-c2cc(-c3cc(F)c(F)c(F)c3)ccc2C(F)(F)F)n1` (stereo in doubt) [Example 4, 1-{5-{3-Deoxy-3-[4-(3,4,5-trifluorophenyl)-1H-1,2-pyrazol-1-yl]-β-D-galactopyranosyl}-3-methyl-1H-1,2,4-triazol-1-yl}-2-(trifluoromethyl)-2-(3,4,5-trifluorophenyl)benzene] reads 200 nM; that for `Cc1nc([C@@H]2OC(CO)[C@H](O)C(n3cc(-c4cccc(F)n4)cn3)C2O)n(-c2cc(Cl)ccc2C(F)(F)F)n1` (stereo in doubt) [Example 6, 5-Chloro-1-{5-{3-deoxy-3-[4-(6-fluoropyridin-2-yl)-1H-1,2-pyrazol-1-yl]-β-D-galactopyranosyl}-3-methyl-1H-1,2,4-triazol-1-yl}-2-(trifluoromethyl)benzene], 130 nM.
Regarding `Cc1nc([C@@H]2OC(CO)[C@H](O)C(n3cc(-c4cc(F)ccn4)cn3)C2O)n(-c2cc(Cl)ccc2C(F)(F)F)n1` (stereo in doubt) [Example 7, 5-Chloro-1-{5-{3-deoxy-3-[4-(4-fluoropyridin-2-yl)-1H-1,2-pyrazol-1-yl]-β-D-galactopyranosyl}-3-methyl-1H-1,2,4-triazol-1-yl}-2-(trifluoromethyl)benzene], the Kd was found to be 82 nM.
As to `Cc1nc([C@@H]2OC(CO)[C@H](O)C(n3cc(-c4cc(F)c(Cl)c(F)c4)c(C)n3)C2O)n(-c2cc(Cl)ccc2C(F)(F)F)n1` (stereo in doubt) [Example 12, 1-{5-{3-[4-(4-Chloro-3,5-difluorophenyl)-3-methyl-1H-1,2-pyrazol-1-yl]-3-deoxy-β-D-galactopyranosyl}-3-methyl-1H-1,2,4-triazol-1-yl}-5-chloro-2-(trifluoromethyl)benzene], the Kd was 11 nM.
The result for `Cc1nc([C@@H]2OC(CO)[C@H](O)C(n3cc(-c4cc(F)c(Cl)cn4)cn3)C2O)n(-c2cc(Cl)ccc2C(F)(F)F)n1` (stereo in doubt) [Example 14, 1-{5-{3-[4-(5-Chloro-4-fluoropyridin-2-yl)-1H-1,2-pyrazol-1-yl]-3-deoxy-β-D-galactopyranosyl}-3-methyl-1H-1,2,4-triazol-1-yl}-5-chloro-2-(trifluoromethyl)benzene] reads 24 nM; that for `Cc1nc([C@@H]2OC(CO)[C@H](O)C(n3cc(-c4cc(F)c(C)cn4)cn3)C2O)n(-c2cc(Cl)ccc2C(F)(F)F)n1` (stereo in doubt) [Example 15, 5-Chloro-1-{5-{3-deoxy-3-[4-(4-fluoro-5-methylpyridin-2-yl)-1H-1,2-pyrazol-1-yl]-β-D-galactopyranosyl}-3-methyl-1H-1,2,4-triazol-1-yl}-2-(trifluoromethyl)benzene], 13 nM.
The compound `Cc1nc([C@@H]2OC(CO)[C@H](O)C(n3cc(-c4cc(C)c(Cl)cn4)cn3)C2O)n(-c2cc(Cl)ccc2C(F)(F)F)n1` (stereo in doubt) [Example 16, 1-{5-{3-[4-(5-Chloro-4-methylpyridin-2-yl)-1H-1,2-pyrazol-1-yl]-3-deoxy-β-D-galactopyranosyl}-3-methyl-1H-1,2,4-triazol-1-yl}-5-chloro-2-(trifluoromethyl)benzene] had a Kd of 140 nM.
The same measure for `C#Cc1c(F)cc(-c2cnn(C3C(O)[C@H](c4nc(C)nn4-c4cc(Cl)ccc4C(F)(F)F)OC(CO)[C@@H]3O)c2)cc1F` (stereo in doubt) [Example 17, 5-Chloro-1-{5-{3-deoxy-3-[4-(4-ethynyl-3,5-difluorophenyl)-1H-1,2-pyrazol-1-yl]-β-D-galactopyranosyl}-3-methyl-1H-1,2,4-triazol-1-yl}-2-(trifluoromethyl)benzene]: 60 nM.
The same measure for `C#CCc1c(F)cc(-c2cnn(C3C(O)[C@H](c4nc(C)nn4-c4cc(Cl)ccc4C(F)(F)F)OC(CO)[C@@H]3O)c2)cc1F` (stereo in doubt) [Example 18, 5-Chloro-1-{5-{3-deoxy-3-{4-[3,5-difluoro-4-(2-propyn-1-yl)phenyl]-1H-1,2-pyrazol-1-yl}-β-D-galactopyranosyl}-3-methyl-1H-1,2,4-triazol-1-yl}-2-(trifluoromethyl)benzene]: 26 nM; for `Cc1nc([C@@H]2OC(CO)[C@H](O)C(n3cc(-c4cc(F)c(F)c(F)c4)cn3)C2O)n(-c2cncc(Br)c2)n1` (stereo in doubt) [Example 19, 5-Bromo-3-{5-{3-deoxy-3-[4-(3,4,5-trifluorophenyl)-1H-1,2-pyrazol-1-yl]-β-D-galactopyranosyl}-3-methyl-1H-1,2,4-triazol-1-yl}pyridine]: 25 nM.
With `Cc1nc([C@@H]2OC(CO)[C@H](O)C(n3cc(-c4cc(F)c(F)c(F)c4)cn3)C2O)n(-c2cc(Cl)cnc2C(F)(F)F)n1` (stereo in doubt) [Example 20, 5-Chloro-3-{5-{3-deoxy-3-[4-(3,4,5-trifluorophenyl)-1H-1,2-pyrazol-1-yl]-β-D-galactopyranosyl}-3-methyl-1H-1,2,4-triazol-1-yl}-2-(trifluoromethyl)pyridine], the dissociation constant (Kd) is 11 nM.
The same measure for `Cc1nc([C@@H]2OC(CO)[C@H](O)C(n3cc(-c4cc(F)c(F)c(F)c4)cn3)C2O)n(-c2cc(Cl)cnc2C#N)n1` (stereo in doubt) [Example 21, 5-Chloro-2-cyano-3-{5-{3-deoxy-3-[4-(3,4,5-trifluorophenyl)-1H-1,2-pyrazol-1-yl]-β-D-galactopyranosyl}-3-methyl-1H-1,2,4-triazol-1-yl}pyridine]: 82 nM; for `Cc1nc([C@@H]2OC(CO)[C@H](O)C(n3cc(-c4cc(F)c(F)c(F)c4)cn3)C2O)n(-c2cc(Br)cnc2C#N)n1` (stereo in doubt) [Example 22, 5-Bromo-2-cyano-3-{5-{3-deoxy-3-[4-(3,4,5-trifluorophenyl)-1H-1,2-pyrazol-1-yl]-β-D-galactopyranosyl}-3-methyl-1H-1,2,4-triazol-1-yl}pyridine]: 33 nM.
Consider `Cc1nc([C@@H]2OC(CO)[C@H](O)C(n3cc(-c4cc(F)c(F)c(F)c4)cn3)C2O)n(-c2cc(Br)ccc2C(F)(F)F)n1` (stereo in doubt) [Example 24, 5-Bromo-1-{5-{3-deoxy-3-[4-(3,4,5-trifluorophenyl)-1H-1,2-pyrazol-1-yl]-β-D-galactopyranosyl}-3-methyl-1H-1,2,4-triazol-1-yl}-2-(trifluoromethyl)benzene], for which binding was characterised by a dissociation constant (Kd) of 2 nM.
Compound `Cc1nc([C@@H]2OC(CO)[C@H](O)C(n3cc(-c4cc(F)c(F)c(F)c4)cn3)C2O)n(-c2cc(Br)cnc2C(F)(F)F)n1` (stereo in doubt) [Example 25, 5-Bromo-3-{5-{3-deoxy-3-[4-(3,4,5-trifluorophenyl)-1H-1,2-pyrazol-1-yl]-β-D-galactopyranosyl}-3-methyl-1H-1,2,4-triazol-1-yl}-2-(trifluoromethyl)pyridine] registered a Kd of 11 nM.
The same measure for `Cc1nc([C@@H]2OC(CO)[C@H](O)C(n3cc(-c4cc(F)c(F)c(F)c4)cn3)C2O)n(-c2cc(Br)ccc2C#N)n1` (stereo in doubt) [Example 26, 5-Bromo-2-cyano-1-{5-{3-deoxy-3-[4-(3,4,5-trifluorophenyl)-1H-1,2-pyrazol-1-yl]-β-D-galactopyranosyl}-3-methyl-1H-1,2,4-triazol-1-yl}benzene]: 15 nM; for `Cc1nc([C@@H]2OC(CO)[C@H](O)C(n3cc(-c4cc(F)c(F)c(F)c4)cn3)C2O)n(-c2cc(Cl)ccc2C#N)n1` (stereo in doubt) [Example 27, 5-Chloro-2-cyano-1-{5-{3-deoxy-3-[4-(3,4,5-trifluorophenyl)-1H-1,2-pyrazol-1-yl]-β-D-galactopyranosyl}-3-methyl-1H-1,2,4-triazol-1-yl}benzene]: 37 nM; for `Cc1nc([C@@H]2OC(CO)[C@H](O)C(n3cc(-c4cc(F)c(Cl)c(F)c4)cn3)C2O)n(-c2cc(Cl)cnc2C(F)(F)F)n1` (stereo in doubt) [Example 28, 3-{5-{3-[4-(4-Chloro-3,5-difluorophenyl)-1H-1,2-pyrazol-1-yl]-3-deoxy-β-D-galactopyranosyl}-3-methyl-1H-1,2,4-triazol-1-yl}-5-chloro-2-(trifluoromethyl)pyridine]: 15 nM.
The result for `CCOC(=O)c1nn(C2C(O)[C@H](c3nc(C)nn3-c3cc(Cl)ccc3C(F)(F)F)OC(CO)[C@@H]2O)cc1-c1cc(F)c(Cl)c(F)c1` (stereo in doubt) [Example 29, 1-{5-{3-[4-(4-Chloro-3,5-difluorophenyl)-3-ethoxycarbonyl-1H-1,2-pyrazol-1-yl]-3-deoxy-β-D-galactopyranosyl}-3-methyl-1H-1,2,4-triazol-1-yl}-5-chloro-2-(trifluoromethyl)benzene] reads 28 nM.

For the origin of these results see patent US20240309038A1, “NOVEL GALACTOSIDE INHIBITOR OF GALECTINS” (GALECTO BIOTECH AB, priority 2020, published 2024).
